Measured values as given in patent publication US12508286B2, “Composition for treating spinal cord injury, comprising stem cells treated with novel compound” (YJ CERAPEUTICS INC., priority 2019, dated 2025).

Test system: MSCs
Experiment: Stem cell differentiation confirmed with neural lineage markers
Assay type: cell-based
Settings: MSCs cultured in a medium containing the compound for 5 days
Procedure: Referring to FIGS. 3 and 4, MSCs were cultured in a medium containing the compound for 5 days, and the differentiation status was confirmed using a neural lineage marker. As a result.
MSCs of passage 3 received from Kangstem Biotech were maintained in a KSB3 basal medium containing 10% FBS (Gibco) and supplements.
After passage 1, MSCs of passage 4 were stocked and stored in liquid nitrogen.
Referring to FIG. 1, MSCs of passage 5 were seeded at 1 mL per well in 12 wells diluted to 1.1×10^4/mL.
After 4 hours, the cells were treated with 40 μM of L1 or L3 or 30 μM of L2 (Formula 1).
After three days, the medium was changed with a new medium, and the cells were treated with the compound in the same manner and then additionally cultured for two days.

CCc1ccc(N(C(=O)COC)c2nc3cc(Cl)ccc3o2)cc1 [L2, N-(5-Chlorobenzo[d]oxazol-2-yl)-N-(4-ethylphenyl)-2-methoxyacetamide]
GFAP expression: hardly expressed | Nestin expression: hardly expressed | Tuj1-positive cells: ≥ 90%
